“And” between values parts separate entries of the source, which are not always exact repeats. Equal entries are not always repeated.
Tested on: C. elegans
Conditions: for Percentage of motility inhibition 0 h / Percentage of motility inhibition 24 h: Table S2, C. elegans SS assay, 110 μM, averages of 4 data points

Compound | Percentage of motility inhibition 0 h [%] | Percentage of motility inhibition 24 h | Inhibition (%) 110 μM (0 h) [%] | Inhibition (%) 110 μM (24 h) [%]
C[C@@H]1O[C@@H](O[C@H]2[C@H](O[C@H]3[C@H](O[C@H]4CC[C@]5(C)[C@H]6CC=C7[C@@H]8CC(C)(C)CC[C@]8(C(=O)O[C@@H]8O[C@H](CO[C@@H]9O[C@H](CO)[C@@H](O[C@@H]%10O[C@@H](C)[C@H](O)[C@@H](O)[C@H]%10O)[C@H](O)[C@H]9O)[C@@H](O)[C@H](O)[C@H]8O)CC[C@@]7(C)[C@]6(C)CC[C@H]5C4(C)C)OC[C@H](O)[C@@H]3O)O[C@H](CO)[C@@H](O)[C@@H]2O)[C@H](O)[C@H](O)[C@H]1O [Raddeanoside R8] | 3 | 0% |  | 
Eprinomectin [reference compound] | 96 | 86% | 91 ± 3 | 92 ± 3
COc1ccc(-c2coc3cc(O)cc(O)c3c2=O)cc1 [Biochanin A] | 7 | 0% |  | 
COc1cc2c(cc1O)C[C@@H]1NCCc3cc(O)c(OC)c-2c31.Cl [Laurolitsine (hydrochloride)] | 36 | 5% |  | 
CCCc1ncc(C[n+]2ccccc2C)c(N)n1.Cl.[Cl-] [Amprolium (hydrochloride)] | 12 | 0% |  | 
O.O=C([O-])CC(O)(CC(=O)[O-])C(=O)[O-].[K+].[K+].[K+] [Citric acid (tripotassium hydrate)] | 28 | 4% |  | 
CC(C)=CCCC(C)(OC1OC(CO)C(O)C(O)C1O)C1CCC2(C)C1C(O)CC1C3(C)CC(O)C(OC4OC(CO)C(O)C(O)C4OC4OC(CO)C(O)C(O)C4O)C(C)(C)C3CCC12C (centres unmarked) [Gypenoside XLVI] | 1 | 2% |  | 
CC(C)=CCC[C@](C)(O)[C@H]1CC[C@]2(C)[C@@H]1[C@H](O)C[C@@H]1[C@@]3(C)CC[C@H](O)C(C)(C)[C@@H]3[C@@H](O[C@@H]3O[C@H](CO)[C@@H](O)[C@H](O)[C@H]3O[C@@H]3OC[C@@H](O)[C@H](O)[C@H]3O)C[C@]12C [Notoginsenoside R2] | 19 | 9% |  | 
C=C1C(=O)O[C@H]2[C@H]1CC[C@]1(C)O[C@@]13CC[C@@](C)(O)[C@H]23 [Epoxymicheliolide] | 16 | 24% |  | 
CC(C)=CCN=C(N)N.Cl [Galegine (hydrochloride)] | 0 | 0% |  | 
COc1cc2c(cc1OC)[C@H]1Cc3ccc(OC)c(OC)c3CN1CC2 [D‐Tetrahydropalmatine] | 0 | 0% |  | 
COc1cc2c(cc1OC)-c1cc3ccc(OC)c(OC)c3c[n+]1CC2.[Cl-] [Palmatine (chloride)] |  | 0% |  | 
COc1ccc(-c2cc(=O)c3c(O)cc(O)c(-c4cc(-c5cc(=O)c6c(O)cc(OC)cc6o5)ccc4OC)c3o2)cc1 [Sciadopitysin] | 0 | 21% |  | 
CCCCCCCCCCCCCc1cc(=O)c2ccccc2n1C [Dihydroevocarpine] | 3 | 0% |  | 
CO/N=C(\C(=O)N[C@@H]1C(=O)N2C(C(=O)OCOC(=O)C(C)(C)C)=C(/C=C\c3scnc3C)CS[C@H]12)c1csc(N)n1 [Cefditoren (Pivoxil)] | 36 | 1% |  | 
O=c1c(O[C@@H]2O[C@H](CO)[C@H](O)[C@H](O)[C@H]2O[C@@H]2O[C@H](CO)[C@@H](O)[C@H](O)[C@H]2O)c(-c2ccc(O)cc2)oc2cc(O)cc(O)c12 [Panasenoside] | 6 | 31% |  | 
Vitamin K | 0 | 15% |  | 
C[C@@]12C[C@@H](c3ccoc3)OC(=O)[C@@H]1CC[C@]1(C)[C@H]2[C@@H]2C=C[C@@]1(O)C(=O)O2 [Columbin] | 0 | 1% |  | 
C=C(C)C(=O)O[C@H]1CC2=C[C@@H](C/C(C)=C/[C@H]3OC(=O)C(=C)[C@H]13)OC2=O [Deoxyelephantopin] | 0 | 9% |  | 
C[C@@H]1CCO[C@H]2Cn3cc(C(=O)NCc4ccc(F)cc4F)c(=O)c([O-])c3C(=O)N12.[Na+] [Dolutegravir (sodium)] | 0 | 17% |  | 
C[C@@H]1O[C@@H](O[C@H]2[C@H](Oc3c(-c4ccc(O)cc4)oc4cc(O)cc(O)c4c3=O)O[C@H](CO)[C@@H](O)[C@@H]2O)[C@H](O)[C@H](O)[C@H]1O [Kaempferol‐3‐O‐glucorhamnoside] | 5 | 2% |  | 
CS(=O)(=O)O.Cc1c(O)cccc1C(=O)N[C@@H](CSc1ccccc1)[C@H](O)CN1C[C@H]2CCCC[C@H]2C[C@H]1C(=O)NC(C)(C)C [Nelfinavir (Mesylate)] | 47 | 5% |  | 

Compound | Percentage of motility inhibition 0 h [%] | Percentage of motility inhibition 24 h | Inhibition (%) 110 μM (0 h) [%] | Inhibition (%) 110 μM (24 h) [%]
Strictosamide | 0 | 9% |  | 
CC(C)(O)[C@@H]1CC[C@](C)([C@H]2[C@@H](O)C[C@@]3(C)[C@@H]4C[C@H](O[C@@H]5O[C@H](CO)[C@@H](O)[C@H](O)[C@H]5O)[C@H]5C(C)(C)[C@@H](O[C@@H]6OC[C@@H](O)[C@H](O)[C@H]6O)CC[C@@]56C[C@@]46CC[C@]23C)O1 [Astragaloside IV] | 10 | 0% |  | 
COc1cc(-c2oc3cc(O)cc(O)c3c(=O)c2O[C@@H]2O[C@H](CO[C@@H]3O[C@@H](C)[C@H](O)[C@@H](O)[C@H]3O)[C@@H](O)[C@H](O)[C@H]2O[C@@H]2O[C@@H](C)[C@H](O)[C@@H](O)[C@H]2O)ccc1O [Typhaneoside] | 26 | 15% |  | 
NC[C@H]1O[C@H](O[C@H]2[C@H](O)[C@@H](O[C@H]3O[C@H](CO)[C@@H](O)[C@H](N)[C@H]3O)[C@H](N)C[C@@H]2N)[C@H](O)[C@@H](O)[C@@H]1O.O=S(=O)(O)O [Kanamycin (sulfate)] | 22 | 7% |  | 
CCC(CC)[C@H](NC(C)=O)[C@@H]1[C@H](O)[C@@H](C(=O)O)C[C@H]1NC(=N)N.O.O.O [Peramivir (trihydrate)] | 2 | 0% |  | 
O=c1c2ccccc2nc2n1CC[C@@H]2O [Vasicinone] | 0 | 0% |  | 
CC(C)=CCC[C@@](C)(O)[C@H]1CC[C@]2(C)[C@@H]1[C@H](O)C[C@@H]1[C@@]3(C)CC[C@H](O[C@@H]4O[C@H](CO)[C@@H](O)[C@H](O)[C@H]4O[C@@H]4O[C@H](CO)[C@@H](O)[C@H](O)[C@H]4O[C@@H]4OC[C@@H](O)[C@H](O)[C@H]4O)C(C)(C)[C@@H]3CC[C@]12C [Notoginsenoside Ft1] | 14 | 3% |  | 
CN(C)[C@@H]1C(O)=C(C(N)=O)C(=O)[C@@]2(O)C(O)=C3C(=O)c4c(O)ccc(Cl)c4[C@@H](O)[C@H]3C[C@@H]12.Cl [Demeclocycline (hydrochloride)] | 17 | 12% |  | 
CC/C=C\CC1=C(C)CCC1=O [cis‐Jasmone] | 10 | 9% |  | 
CCc1c2c(nc3ccccc13)-c1cc3c(c(=O)n1C2)COC(=O)[C@]3(O)CC [7‐Ethylcamptothecin] | 11 | 22% |  | 
O.O=C1C=CC[C@@H]2[C@H]3CCCN4CCC[C@@H](CN12)[C@@H]34 [Sophocarpine (monohydrate)] | 0 | 0% |  | 
C=C1CC[C@H]2O[C@]2(C)CC[C@@H]2[C@@H]1CC2(C)C [Caryophyllene oxide] | 13 | 13% |  | 
CO[C@@]1(NC(=O)Cc2cccs2)C(=O)N2C(C(=O)[O-])=C(COC(N)=O)CS[C@@H]21.[Na+] [Cefoxitin (sodium)] | 0 | 0% |  | 
CC[C@@]1(O)C(=O)OCc2c1cc1n(c2=O)Cc2cc3c(OC)cccc3nc2-1 [9‐Methoxycamptothecin] | 22 | 0% |  | 
CC[C@@H](C(=O)[C@@H](C)[C@@H](O)[C@H](C)CCc1ccc(C)c(O)c1C(=O)[O-])[C@H]1O[C@](CC)([C@H]2CC[C@](O)(CC)[C@H](C)O2)C[C@@H]1C.[Na+] [Lasalocid (sodium)] | 15 | 4% |  | 
C=C1CC[C@@H]2[C@](C)(COC(=O)CCC(=O)[O-])[C@H](OC(=O)CCC(=O)O)CC[C@@]2(C)[C@@H]1/C=C/C1=CCOC1=O.[K+] [Kalii Dehydrographolidi Succinas] | 5 | 5% |  | 
COc1ccc(/C=C/C(=O)c2ccc(OC)cc2)cc1 [4,4'‐Dimetho xychalcone] | 24 | 3% |  | 
C=C[C@@H]1C2=CCOC(=O)C2=CO[C@H]1O[C@@H]1O[C@H](CO[C@@H]2O[C@H](CO)[C@@H](O)[C@H](O)[C@H]2O)[C@@H](O)[C@H](O)[C@H]1O [6'-O-beta-D-Glucosylgentiopicroside] | 34 | 15% |  | 
C=C1[C@@H]2CCC3[C@@](CC[C@@H]4[C@H](C(=O)O)C[C@@H](O[C@@H]5O[C@H](CO)[C@@H](OS(=O)(=O)[O-])[C@H](OS(=O)(=O)[O-])[C@H]5OC(=O)CC(C)C)C[C@@]34C)(C2)[C@@H]1O.[K+].[K+] (some centres unmarked) [Atractyloside (potassium salt)] | 29 | 45% |  | 
Cc1cc(NS(=O)(=O)c2ccc(N)cc2)nc(C)n1 [Sulfisomidin] | 26 | 10% |  | 
NC(=O)c1cccnc1 [Nicotinamide] |  | 0% and 10% |  | 

— paper PMC11855827, “High-Throughput Screening of Five Compound Libraries for Anthelmintic Activity and Toxicity Leads to the Discovery of Two Flavonoid Compounds” (International Journal of Molecular Sciences, 2025)
